Here are results for 6 compounds from patent publication US11795171B2, “Pyrrolotriazinones and imidazotriazinones as ubiquitin-specific protease 7 inhibitors” (Valo Health, Inc., priority 2014, dated 2023).

Chain of USP7 (Q93009 208-1102): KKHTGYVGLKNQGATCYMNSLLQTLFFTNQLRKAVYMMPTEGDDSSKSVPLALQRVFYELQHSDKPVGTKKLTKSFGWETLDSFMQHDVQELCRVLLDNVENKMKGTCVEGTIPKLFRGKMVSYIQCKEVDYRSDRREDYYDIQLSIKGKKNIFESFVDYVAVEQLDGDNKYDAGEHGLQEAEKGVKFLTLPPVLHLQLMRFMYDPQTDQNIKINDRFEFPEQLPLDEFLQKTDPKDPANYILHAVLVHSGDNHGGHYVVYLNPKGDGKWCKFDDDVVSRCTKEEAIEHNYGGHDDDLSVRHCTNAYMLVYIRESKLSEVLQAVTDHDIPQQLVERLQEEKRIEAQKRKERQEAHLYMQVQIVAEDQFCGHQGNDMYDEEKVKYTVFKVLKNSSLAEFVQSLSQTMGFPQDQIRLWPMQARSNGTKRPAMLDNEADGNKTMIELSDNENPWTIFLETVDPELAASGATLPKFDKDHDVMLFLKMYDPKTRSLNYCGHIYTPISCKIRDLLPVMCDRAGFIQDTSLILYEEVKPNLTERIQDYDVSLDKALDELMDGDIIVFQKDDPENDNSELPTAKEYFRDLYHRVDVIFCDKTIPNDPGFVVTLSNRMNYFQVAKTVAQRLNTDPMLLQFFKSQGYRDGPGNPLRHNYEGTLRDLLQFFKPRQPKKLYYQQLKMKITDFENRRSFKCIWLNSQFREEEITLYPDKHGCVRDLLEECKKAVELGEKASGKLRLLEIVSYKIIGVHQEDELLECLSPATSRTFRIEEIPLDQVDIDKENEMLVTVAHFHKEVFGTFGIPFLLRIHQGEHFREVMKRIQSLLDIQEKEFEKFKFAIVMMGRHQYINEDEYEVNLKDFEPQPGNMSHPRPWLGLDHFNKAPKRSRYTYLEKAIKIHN

This experiment addresses USP7 (Homo sapiens (Human), UniProt Q93009). Put plainly: USP7 Assay A (Ubitquin-Rhodamine110 Assay). It is filed as biochemical. As to conditions: Ub-Rh110 substrate 25 nM. As for the experimental part: Each assay was performed in a final volume of 15 μL in assay buffer containing 20 mM Tris-HCl (pH 8.0, (1M Tris-HCl, pH 8.0 solution; Corning 46-031-CM)), 1 mM GSH (L-Glutathione reduced: Sigma #G4251), 0.03% BGG ([…], Sigma, #G7516-25G), and 0.01% Triton X-100 (Sigma, #T9284-10L). Nanoliter quantities of either an 8-point or 10-point, 3-fold serial dilution in DMSO was pre-dispensed into assay plates (Perkin Elmer, ProxiPlate-384 F Plus, #6008269) for a final test concentration range of either 25 μM to 11 nM or 25 μM to 1.3 nM, respectively. The final concentration of the enzyme (USP7, construct USP7 (208-1102) 6*His, Viva Biotech) in the assay was […]. […] 5 μL of 2× enzyme was added to assay plates (pre-stamped with compound) preincubated with USP7 for 30 minutes and then 5 μL of 2×Ub-Rh110 was added to assay plates. Plates were incubated stacked for 20 minutes at room temperature before 5 μL of stop solution (final concentration of 10 mM citric acid in assay buffer (Sigma, #251275-500G)). Fluorescence was read on the Envision (Excitation at 485 nm and Emission at 535 nm; Perkin Elmer) or on the PheraSTAR (Excitation at 485 nm and Emission at 535 nm; BMG Labtech).
Data from USP7 Assays A and B were reported as percent inhibition (inh) compared with control wells based on the following equation: % inh=1−((FLU−AveLow)/(AveHigh−AveLow)) where FLU=measured Fluorescence (See Tables 2 and 3). AveLow=average Fluorescence of no enzyme control (n=16). AveHigh=average Fluorescence of DMSO control (n=16). IC50 values were determined by curve fitting of the standard 4 parameter logistic fitting algorithm included in the Activity Base software package: IDBS XE Designer Model205. Data is fitted using the Levenburg Marquardt algorithm. IC50 data from USP7 Assays A and B for the compounds of the invention can be found in Tables 2 and 3.
For `Cc1ccc(-c2ncc3c(=O)n(CC4(O)CCN(C(=O)CC(C)n5cccn5)CC4)cnn23)cc1` (racemic) [Compound I-119, 3-([4-Hydroxy-1-[3-(1H-pyrazol-1-yl)butanoyl]piperidin-4-yl]methyl)-7-(4-methylphenyl)-3H,4H-imidazo[4,3-f][1,2,4]triazin-4-one], the IC50 is 1 to 10 µM. The compound `O=C(c1ccc(-n2cccn2)cc1)N1CCC(O)(Cn2cnn3c(-c4ccc(F)cc4)ncc3c2=O)CC1` [Compound I-123, 3-((1-(4-(1H-pyrazol-1-yl)benzoyl)-4-hydroxypiperidin-4-yl)methyl)-7-(4-fluorophenyl)imidazo[5,1-f][1,2,4]triazin-4(3H)-one] showed a half-maximal inhibitory concentration (IC50) of 1 to 10 µM. As for `O=C(c1ccc(F)cc1)N1CCC(O)(Cn2cnn3c(-c4ccc(F)cc4)ncc3c2=O)CC1` [Compound I-116, 3-((1-(4-fluorobenzoyl)-4-hydroxypiperidin-4-yl)methyl)-7-(4-fluorophenyl)imidazo[5,1-f][1,2,4]triazin-4(3H)-one], the concentration for half-maximal inhibition (IC50) was greater than 10 µM. On to `Cc1ccc(C(=O)N2CCC(O)(Cn3cnn4c(-c5ccc(F)cc5)ncc4c3=O)CC2)cc1` [Compound I-124, 7-(4-fluorophenyl)-3-((4-hydroxy-1-(4-methylbenzoyl)piperidin-4-yl)methyl)imidazo[5,1-f][1,2,4]triazin-4(3H)-one], for which the IC50 is greater than 10 µM. For `O=C(c1cnc(C2CC2)o1)N1CCC(O)(Cn2cnn3c(-c4ccc(F)cc4)ncc3c2=O)CC1` [Compound I-122, 3-((1-(2-cyclopropyloxazole-5-carbonyl)-4-hydroxypiperidin-4-yl)methyl)-7-(4-fluorophenyl)imidazo[5,1-f][1,2,4]triazin-4(3H)-one], the IC50 lay in the range of 1 to 10 µM.

`Cc1ccc(-c2ncc3c(=O)n(CC4(O)CCN(C(=O)C[C@@H](C)n5cccn5)CC4)cnn23)cc1` [Compound I-121, (R)-3-((1-(3-(1H-pyrazol-1-yl)butanoyl)-4-hydroxypiperidin-4-yl)methyl)-7-(p-tolyl)imidazo[5,1-f][1,2,4]triazin-4(3H)-one] came in with an IC50 greater than 10 µM.
